The results in this text go back to article PMC4074510 (Neuron, 2014).

Each structure is given as a SMILES string. Bounds are passed on as bounds.

Experiment [1] has as its target PIP5K1C (Homo sapiens, UniProt O60331). The experiment is described as follows: microfluidic mobility shift assay with fluorescein-PI. The experiment is classed as biochemical.
Experiment [2] addresses T1, PIP4K2C (Phosphatidylinositol-5-phosphate 4-kinase, type II, gamma) (Homo sapiens, UniProt Q8TBX8).
T1 sequence (Q8TBX8 2-421): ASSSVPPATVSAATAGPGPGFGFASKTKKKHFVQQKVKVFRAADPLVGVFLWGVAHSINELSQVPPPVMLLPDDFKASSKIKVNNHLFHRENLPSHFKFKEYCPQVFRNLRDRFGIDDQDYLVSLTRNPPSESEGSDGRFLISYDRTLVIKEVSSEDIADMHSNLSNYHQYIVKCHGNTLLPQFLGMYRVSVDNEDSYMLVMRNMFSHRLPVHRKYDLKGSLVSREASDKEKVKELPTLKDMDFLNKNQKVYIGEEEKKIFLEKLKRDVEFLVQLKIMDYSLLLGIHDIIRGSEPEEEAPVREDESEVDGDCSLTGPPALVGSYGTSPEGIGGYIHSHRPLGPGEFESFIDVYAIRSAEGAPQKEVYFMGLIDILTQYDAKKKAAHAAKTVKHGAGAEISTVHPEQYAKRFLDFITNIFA
The experiment can be described thus: KINOMEscan competitive binding assay, dose-response.

Experiment [3] concerns the target T2, SGK1 (Homo sapiens, UniProt O00141).
T2 sequence (O00141 1-431): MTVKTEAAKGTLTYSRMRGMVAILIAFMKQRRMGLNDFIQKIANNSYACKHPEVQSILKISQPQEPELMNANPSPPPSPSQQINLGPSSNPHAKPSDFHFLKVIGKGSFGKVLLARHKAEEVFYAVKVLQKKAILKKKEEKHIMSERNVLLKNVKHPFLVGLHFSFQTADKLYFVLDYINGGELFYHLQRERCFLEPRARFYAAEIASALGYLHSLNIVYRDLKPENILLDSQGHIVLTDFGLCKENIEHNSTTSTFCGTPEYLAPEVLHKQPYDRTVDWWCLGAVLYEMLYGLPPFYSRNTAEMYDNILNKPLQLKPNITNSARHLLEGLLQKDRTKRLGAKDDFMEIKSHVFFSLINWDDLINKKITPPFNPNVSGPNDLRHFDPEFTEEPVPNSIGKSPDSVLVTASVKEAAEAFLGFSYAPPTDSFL
The experiment can be described thus: KINOMEscan competitive binding at […]. The conditions noted are these: read-out: % binding remaining at 10 μM.

Sequence of PIP5K1C (O60331 whole entry): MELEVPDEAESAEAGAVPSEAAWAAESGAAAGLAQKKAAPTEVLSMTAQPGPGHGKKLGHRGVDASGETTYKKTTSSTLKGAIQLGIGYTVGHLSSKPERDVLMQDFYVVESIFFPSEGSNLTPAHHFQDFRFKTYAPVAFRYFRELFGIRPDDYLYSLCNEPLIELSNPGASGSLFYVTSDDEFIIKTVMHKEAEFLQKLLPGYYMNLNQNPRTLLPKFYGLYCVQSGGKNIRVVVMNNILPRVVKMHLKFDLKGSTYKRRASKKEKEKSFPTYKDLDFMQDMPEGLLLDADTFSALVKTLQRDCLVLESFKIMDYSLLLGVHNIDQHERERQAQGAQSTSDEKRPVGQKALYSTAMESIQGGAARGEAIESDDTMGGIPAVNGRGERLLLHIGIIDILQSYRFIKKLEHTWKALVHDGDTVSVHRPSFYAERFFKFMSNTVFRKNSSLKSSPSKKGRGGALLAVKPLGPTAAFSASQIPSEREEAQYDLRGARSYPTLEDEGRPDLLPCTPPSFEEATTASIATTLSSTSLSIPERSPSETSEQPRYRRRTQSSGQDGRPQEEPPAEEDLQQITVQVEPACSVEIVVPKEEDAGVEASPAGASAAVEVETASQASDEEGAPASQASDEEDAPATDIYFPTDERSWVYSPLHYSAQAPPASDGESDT

Turning to `NC(=O)c1nc(Nc2ccccc2)sc1NC(=O)C1CCCCC1` [UNC3230, 5-(cyclohexanecarboxamido)-2-(phenylamino)thiazole-4-carboxamide], the IC50 in experiment [1] is approximately 41 nM. In experiment [2], this molecule came in with a Kd of less than 200 nM. In experiment [3], the remaining binding at 10 µM turned out to be 8%.

For orientation: IC50 means the midpoint of a concentration-inhibition curve. As a reminder, the Kd is the equilibrium constant for the complex coming apart. A high value points to lower affinity.
